Laboratory results as given in patent US20070004660A1, “Synergistic Modulation of Flt3 Kinase Using Alkylquinolines and Alkylquinazolines” (priority 2005, published 2007).

The compounds below were run on MV4-11 cells (assay: Inhibition of MV4-11 cell proliferation (CellTiterGlo, 72 h)). Conditions: Homo sapiens; 72 h growth inhibition; uncertainty ±20%.
Format: cell-based
Experimental: MV4-11 cells cannot grow and survive without active FLT3ITD.
To measure proliferation inhibition by test compounds, the luciferase based CellTiterGlo reagent (Promega), which quantifies total cell number based on total cellular ATP concentration, was used. Cells are plated at 10,000 cells per well in 100 ul of in RPMI media containing penn/strep, 10% FBS and 1 ng/ml GM-CSF or 1 ng/ml IL-3 for MV4-11 and Baf3 cells respectively.
Compound dilutions or 0.1% DMSO (vehicle control) are added to cells and the cells are allowed to grow for 72 hours at standard cell growth conditions (37° C., 5% CO2). For activity measurements in MV4-11 cells grown in 50% plasma, cells were plated at 10,000 cells per well in a 1:1 mixture of growth media and human plasma (final volume of 100 μL). To measure total cell growth an equal volume of CellTiterGlo reagent was added to each well, according to the manufacturer's instructions, and luminescence was quantified. Total cell growth was quantified as the difference in luminescent counts (relative light units, RLU) of cell number at Day 0 compared to total cell number at Day 3 (72 hours of growth and/or compound treatment). One hundred percent inhibition of growth is defined as an RLU equivalent to the Day 0 reading. Zero percent inhibition was defined as the RLU signal for the DMSO vehicle control at Day 3 of growth. All data points are an average of triplicate samples. […] Inhibition and IC50 data analysis was done with GraphPad Prism using a non-linear regression fit with a multiparamater, sigmoidal dose-response (variable slope) equation.
MV4-11 cells express the FLT3 internal tandem duplication mutation, and thus are entirely dependent upon FLT3 activity for growth. […] In contrast, the Baf3 cell proliferation is driven by the cytokine IL-3 and thus are used as a non-specific toxicity control for test compounds.

Compound	IC50 [µM]
CN1CCN(CCCOc2ccc3c(C4CCN(C(=O)Nc5ccc(N6CCOCC6)c(F)c5)CC4)ncnc3c2)CC1 [Example 81, 4-{7-[3-(4-Methyl-piperazin-1-yl)-propoxy]-quinazolin-4-yl}-piperidine-1-carboxylic acid (3-fluoro-4-morpholin-4-yl-phenyl)-amide]	0.07
COc1cc2ncnc(C3CCN(C(=O)Nc4ccc(C5CCN(C(=O)OC(C)(C)C)CC5)cc4)CC3)c2cc1OC [Example 63, 4-(4-{[4-(6,7-Dimethoxy-quinazolin-4-yl)-piperidine-1-carbonyl]-amino}-phenyl)-piperidine-1-carboxylic acid tert-butyl ester]	4.1
CC(C)Oc1ccc(NC(=O)N2CCC(c3ncnc4cc(N(C)C)ccc34)CC2)cc1 [Example 100, 4-(7-Dimethylamino-quinazolin-4-yl)-piperidine-1-carboxylic acid (4-isopropoxy-phenyl)-amide]	0.036
COc1cc2ncnc(C3CCN(C(=O)Nc4ccccc4)CC3)c2cc1OC [Example 45, 4-(6,7-Dimethoxy-quinazolin-4-yl)-piperidine-1-carboxylic acid phenylamide]	16.7
O=C(Nc1ccc(N2CCOCC2)cc1)N1CCC(c2ncnc3cc(OCCC4CCCCN4)ccc23)CC1 (stereo not drawn) [Example 98, 4-[7-(2-Piperidin-2-yl-ethoxy)-quinazolin-4-yl]-piperidine-1-carboxylic acid (4-morpholin-4-yl-phenyl)-amide]	0.277
O=C1CCCN1CCOc1ccc2c(C3CCN(C(=O)Nc4ccc(N5CCOCC5)cc4)CC3)ncnc2c1 [Example 85, 4-{7-[2-(2-Oxo-pyrrolidin-1-yl)-ethoxy]-quinazolin-4-yl}-piperidine-1-carboxylic acid (4-morpholin-4-yl-phenyl)-amide]	0.058
CCCCc1ccc(NC(=O)N2CCC(c3ncnc4cc(OC)c(OC)cc34)CC2)cc1 [Example 43, 4-(6,7-Dimethoxy-quinazolin-4-yl)-piperidine-1-carboxylic acid (4-butyl-phenyl)-amide]	0.197
CC(=O)N1CCN(CCOc2ccc3c(C4CCN(C(=O)Nc5ccc(N6CCOCC6)cc5)CC4)ncnc3c2)CC1 [Example 97, 4-{7-[2-(4-Acetyl-piperazin-1-yl)-ethoxy]-quinazolin-4-yl}-piperidine-1-carboxylic acid (4-morpholin-4-yl-phenyl)-amide]	0.262
CC(=O)N1CCN(CCCOc2ccc3c(C4CCN(C(=O)Nc5ccc(N6CCOCC6)cc5)CC4)ncnc3c2)CC1 [Example 117, 4-{7-[3-(4-Acetyl-piperazin-1-yl)-propoxy]-quinazolin-4-yl}-piperidine-1-carboxylic acid (4-morpholin-4-yl-phenyl)-amide]	0.171
COc1cc2ncnc(C3CCN(C(=O)Nc4ccc(C(C)O)cc4)CC3)c2cc1OC (stereo not drawn) [Example 55, 4-(6,7-Dimethoxy-quinazolin-4-yl)-piperidine-1-carboxylic acid [4-(1-hydroxy-ethyl)-phenyl]-amide]	2.6
CN1CCC(COc2ccc3c(C4CCN(C(=O)Nc5ccc(N6CCOCC6)cc5)CC4)ncnc3c2)CC1 [Example 94, 4-[7-(1-Methyl-piperidin-4-ylmethoxy)-quinazolin-4-yl]-piperidine-1-carboxylic acid (4-morpholin-4-yl-phenyl)-amide]	0.06
CC(C)Oc1ccc(NC(=O)N2CCC(c3ncnc4cc(OCCN5CCOC5=O)ccc34)CC2)cc1 [Example 79, 4-{7-[2-(2-Oxo-oxazolidin-3-yl)-ethoxy]-quinazolin-4-yl}-piperidine-1-carboxylic acid (4-isopropoxy-phenyl)-amide]	0.044
COc1cc2ncnc(C3CCN(CC(=O)Nc4ccc(C(C)C)cc4)CC3)c2cc1OC [Example 9, 2-[4-(6,7-Dimethoxy-quinazolin-4-yl)-piperidin-1-yl]-N-(4-isopropyl-phenyl)-acetamide]	0.029
CC(C)Oc1ccc(NC(=O)N2CCC(c3ncnc4cc(OCCCOS(C)(=O)=O)ccc34)CC2)cc1 [Example 121, Methanesulfonic acid 3-{4-[1-(4-isopropoxy-phenylcarbamoyl)-piperidin-4-yl]-quinazolin-7-yloxy}-propyl ester]	0.027
CC(C)Oc1ccc(NC(=O)N2CCC(c3ncnc4cc(NCCCN5CCN(C)CC5)ccc34)CC2)cc1 [Example 102, 4-{7-[3-(4-Methyl-piperazin-1-yl)-propylamino]-quinazolin-4-yl}-piperidine-1-carboxylic acid (4-isopropoxy-phenyl)-amide]	0.018
COc1cc2ncnc(C3CCN(C(=O)Nc4ccc(-c5ccco5)cc4)CC3)c2cc1OC [Example 59, 4-(6,7-Dimethoxy-quinazolin-4-yl)-piperidine-1-carboxylic acid (4-furan-2-yl-phenyl)-amide]	0.269
CN1CCN(CCCOc2ccc3c(C4CCN(C(=O)Nc5ccc(OC6CCCC6)nc5)CC4)ncnc3c2)CC1 [Example 82, 4-{7-[3-(4-Methyl-piperazin-1-yl)-propoxy]-quinazolin-4-yl}-piperidine-1-carboxylic acid (6-cyclopentyloxy-pyridin-3-yl)-amide]	0.018
CC(C)Oc1ccc(NC(=O)N2CCC(c3ncnc4cc(OCC5CCN(C)CC5)ccc34)CC2)cc1 [Example 93, 4-[7-(1-Methyl-piperidin-4-ylmethoxy)-quinazolin-4-yl]-piperidine-1-carboxylic acid (4-isopropoxy-phenyl)-amide]	0.009
CC(C)Oc1ccc(NC(=O)N2CCC(c3ccnc4ccccc34)CC2)cc1 [Example 6, 4-Quinolin-4-yl-piperidine-1-carboxylic acid (4-isopropoxy-phenyl)-amide]	0.28
O=C(Nc1ccc(N2CCCC2)nc1)N1CCC(c2ncnc3cc(OCCN4CCOCC4)ccc23)CC1 [Example 95, 4-[7-(2-Morpholin-4-yl-ethoxy)-quinazolin-4-yl]-piperidine-1-carboxylic acid (6-pyrrolidin-1-yl-pyridin-3-yl)-amide]	0.056
CS(=O)(=O)NCCCOc1ccc2c(C3CCN(C(=O)Nc4ccc(OC5CCCC5)nc4)CC3)ncnc2c1 [Example 88, 4-[7-(3-Methanesulfonylamino-propoxy)-quinazolin-4-yl]-piperidine-1-carboxylic acid (6-cyclopentyloxy-pyridin-3-yl)-amide]	0.037
CS(=O)(=O)NCCCOc1ccc2c(C3CCN(C(=O)Nc4ccc(N5CCOCC5)cc4)CC3)ncnc2c1 [Example 66, 4-[7-(3-Methanesulfonylamino-propoxy)-quinazolin-4-yl]-piperidine-1-carboxylic acid (4-morpholin-4-yl-phenyl)-amide]	0.014
CCN(CC)CC#Cc1ccc2ncnc(C3CCN(C(=O)Nc4ccc(OC(C)C)cc4)CC3)c2c1 [Example 13, 4-[6-(3-Diethylamino-prop-1-ynyl)-quinazolin-4-yl]-piperidine-1-carboxylic acid (4-isopropoxy-phenyl)-amide]	0.059
O=C(Nc1ccc(N2CCOCC2)cc1)N1CCC(c2ncnc3cc(OCCCN4CCN(CCO)CC4)ccc23)CC1 [Example 116, 4-(7-{3-[4-(2-Hydroxy-ethyl)-piperazin-1-yl]-propoxy}-quinazolin-4-yl)-piperidine-1-carboxylic acid (4-morpholin-4-yl-phenyl)-amide]	0.139
